Source: patent US8093030B2, “Thermostable viral polymerases and methods of use” (Lucigen Corporation, priority 2005, dated 2012)

Assays:
[1] = target: polymerase 3173 (SEQ ID NO:6) mutant D49A (uncultured virus, UniProt R4KMS7, D72A); experiment: Inhibition of 5' Rox-labeled primer extension by chain terminators (ABI 310 Genetic Analyzer); assay type: biochemical; settings: ddNTPs 50, 500 and 5000 μM each vs 50 μM each dNTP (up to 100-fold molar excess); 70° C., 30 minutes
Protocol: (§1) In separate reactions, ddGTP, ddATP, ddTTP, and ddCTP were added to the above mix in concentrations of 50, 500 and 5000 μM each. Five units of polymerase 3173 mutant D49A were added and the reactions were incubated for 30 minutes at 70° C. Extension of the primer was detected by the ABI 310 Genetic Analyzer in Gene Scan mode.

lacIq gene = experiment: Fidelity assay, lacIq amplification with blue/white colony count; settings: 25 PCR cycles; target size 349 for lacIq
Protocol: Fidelity was determined by a modification of the standard assay in which the lacIq gene is amplified by the DNA polymerase of interest and inserted into a plasmid containing genes encoding a functional lacZ alpha peptide and a selectable marker. Primers of SEQ ID NOS:28 and 29 were used to amplify a sequence containing both the lacIq and the KanR gene. […] Normally a white phenotype is seen for clone containing this construct when plated on X-Gal. Mutation of the lacIq results in a blue phenotype for the colonies when plated on X-Gal.
For high fidelity PCR amplification, five units of the wild-type (proofreading) DNA polymerase 3173 (SEQ ID NO: 6) was tested using the following mix (50 mM Tris HCl (pH 9.0 at 25° C.), 50 mM KCl, 10 mM (NH4)2SO4, 1.5 mM MgSO4, 1.5 mM MgCl2, 0.1% triton-X100, 250 mM ectoine and 0.2 mM each of dGTP, dATP, dTTP and dCTP. Opposing primers of SEQ ID 28 and 29 (1 μM each) amplified the expected 2 k kb product from template SEQ ID 30 (10 ng). After thermal cycling (94° C. for 1 minute, 25 cycles of (94° C. for 15 seconds, 60° C. for 15 seconds, 72° C. for 2.5 minutes) and 72° C. 7 minutes), reaction products were quantified to determine “fold amplification,” (see below) using agarose gel electrophoresis. Both primers contain Eco109I sites. The PCR product was digested with Eco109I and inserted into the Eco109I site of pUC19. 10 G cells transformed by the construct were plated on LB plates containing ampicillin (100 μg/ml), kanamycin (30 μg/ml) and X-Gal (50 μg/ml). Blue and white colony counts were used for the fidelity determinations.

[2] = target: polymerase 3173 (SEQ ID NO:6) double mutant D49A/F418Y, SEQ ID NO:27 (uncultured virus, UniProt R4KMS7, D72A/F441Y); experiment: Fluorescent primer extension assay with ddGTP; assay type: biochemical
Protocol: as §1
The polymerase 3173 double mutant D49A/F418Y was also tested in the fluorescent primer extension assay described above.

[3] = system: ROX-labeled 37 nt primer annealed to 41 nt template; experiment: Primer extension assay of heat-treated clone extracts (ABI 310 capillary electrophoresis); assay type: biochemical; settings: extract heated 70° C. 10 min; reaction 70° C. 10 minutes
Protocol: 34 complete polymerase genes from the library described in Examples 3 and 4, as well as 24 additional viral genes from three other similarly prepared libraries, were constitutively expressed in the E. CLONI 10 G cells (Lucigen, Middleton, Wis.). The proteins were extracted, heated to 70° C. for 10 minutes and tested for DNA polymerase activity using a primer extension assay as follows.
A primer of 37 nucleotides having the sequence shown in SEQ ID NO:23, labeled on its 5′ end with ROX, was annealed to a template of 41 nucleotides having the sequence shown in SEQ ID NO:24. […] The reaction was incubated at 70° C. for 10 minutes. The reactions were analyzed using an ABI 310 Genetic Analyzer. […] Of the 58 clones tested, a total of ten clones expressed detectable DNA polymerase (DNAP) activity. The clone number and corresponding polynucleotide sequence, polypeptide sequence, sequence similarity and E (expect)-values for these polymerases are shown below in Table 1.

Chain of polymerase 3173 (SEQ ID NO:6) mutant D49A (R4KMS7 entry or part of it D72A): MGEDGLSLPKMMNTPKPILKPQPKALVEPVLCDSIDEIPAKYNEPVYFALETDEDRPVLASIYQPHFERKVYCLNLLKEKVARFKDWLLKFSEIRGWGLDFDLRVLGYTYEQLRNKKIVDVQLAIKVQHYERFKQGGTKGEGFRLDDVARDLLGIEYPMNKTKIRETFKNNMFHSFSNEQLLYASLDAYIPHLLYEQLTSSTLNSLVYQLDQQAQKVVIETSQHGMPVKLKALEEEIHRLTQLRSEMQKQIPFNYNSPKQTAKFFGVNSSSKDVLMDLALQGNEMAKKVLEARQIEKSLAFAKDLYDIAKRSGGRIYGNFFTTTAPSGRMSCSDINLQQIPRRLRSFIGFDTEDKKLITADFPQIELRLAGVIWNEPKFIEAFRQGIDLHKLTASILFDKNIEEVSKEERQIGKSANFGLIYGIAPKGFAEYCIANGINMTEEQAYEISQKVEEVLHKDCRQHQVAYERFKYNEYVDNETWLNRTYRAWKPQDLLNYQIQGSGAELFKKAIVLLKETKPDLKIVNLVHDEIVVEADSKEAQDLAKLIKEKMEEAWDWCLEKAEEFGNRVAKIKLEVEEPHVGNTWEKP
Chain of polymerase 3173 (SEQ ID NO:6) double mutant D49A/F418Y, SEQ ID NO:27 (R4KMS7 entry or part of it D72A/F441Y): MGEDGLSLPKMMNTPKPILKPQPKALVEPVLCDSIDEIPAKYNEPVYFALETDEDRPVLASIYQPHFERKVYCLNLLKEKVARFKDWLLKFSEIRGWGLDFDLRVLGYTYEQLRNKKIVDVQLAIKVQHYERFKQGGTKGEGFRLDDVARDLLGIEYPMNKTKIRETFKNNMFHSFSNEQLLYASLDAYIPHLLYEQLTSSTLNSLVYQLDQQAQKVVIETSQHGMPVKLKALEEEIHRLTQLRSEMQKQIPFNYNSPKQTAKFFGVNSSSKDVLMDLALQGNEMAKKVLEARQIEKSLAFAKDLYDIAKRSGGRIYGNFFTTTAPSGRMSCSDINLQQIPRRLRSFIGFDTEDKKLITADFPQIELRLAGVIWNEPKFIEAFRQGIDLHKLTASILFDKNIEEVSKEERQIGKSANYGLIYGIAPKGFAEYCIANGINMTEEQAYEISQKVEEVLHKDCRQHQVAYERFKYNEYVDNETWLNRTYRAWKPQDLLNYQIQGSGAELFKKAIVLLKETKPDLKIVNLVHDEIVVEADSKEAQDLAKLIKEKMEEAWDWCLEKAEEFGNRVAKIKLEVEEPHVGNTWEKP

## Nc1ccn([C@H]2CC[C@@H](COP(=O)(O)OP(=O)(O)OP(=O)(O)O)O2)c(=O)n1 [ddCTP]
[1]
  inhibition of primer extension: no inhibition of primer extension was detected

## Cc1cn([C@H]2CC[C@@H](COP(=O)(O)OP(=O)(O)OP(=O)(O)O)O2)c(=O)[nH]c1=O [ddTTP]
[1]
  inhibition of primer extension: no inhibition of primer extension was detected

## Nc1ncnc2c1ncn2[C@H]1CC[C@@H](COP(=O)(O)OP(=O)(O)OP(=O)(O)O)O1 [ddATP]
[1]
  inhibition of primer extension: no inhibition of primer extension was detected

## Taq: standard commercial DNA polymerase (Lucigen) used for comparison [reference compound]
lacIq gene
  Fidelity: 9.76E+03

## Nc1nc2c(ncn2[C@H]2CC[C@@H](COP(=O)(O)OP(=O)(O)OP(=O)(O)O)O2)c(=O)[nH]1 [ddGTP]
[1]
  inhibition of primer extension: no inhibition of primer extension was detected
[2]; 0.2× ratio of ddGTP:dGTP
  inhibition of primer extension: nearly complete inhibition of primer extension, with no extension continuing beyond the fourth G residue
[2]; 2× ratio of ddGTP:dGTP
  inhibition of primer extension: almost completely inhibited any extension

B1: Clone 488: thermostable viral DNA polymerase clone, polypeptide SEQ ID NO: 4 (protein)
chain: AVGTWITTLQKLGFTYEELEDKEVLDLLSIARLVLPERFKENGFSLDVVLKEVLGIDYKFDKKTIRKTFTPLLMTQEQLEYIASDVIYLPALKEKLDEKFNKRLWLPYILDMEATKILAEVSNNGMPFLKEKAKEELSRLSKELEGLRKELGFNPNSPKETQKVLNTPDTSEATLMKLIISNSSKKAIAEKVIQARKIQKVIAMINKYLNYDRVKGTFWTTTAPSGRMSCDKENLQQIPRSIRYLFGFDENSDKTLVIADYPQIELRLAGVLWKEPKFIQAFNEGKDLHKQTASIIYGIPYEEVNKEQRQIAKSANFGLIYGMSVEGFANYCIKNGIPMDTQTAQHIVNSFFNFYGKIAEKHKEGNLIIQSQGIAEGYTWLGRRYIAQRLNDYLNYQIQGSGAELLKKAVMEIKSKYPYIKIVNLVHDEIVVEAYKDDAQDIARIIKQEMENAWEWCIQEAQKLGVDLTPVKLECENPTISNVWEK
modifications: Uncultured newly isolated virus
[3]
  Exo (exonuclease activity, either 3′-5′ or 5′-3′): No

B2: Clone 967: thermostable viral DNA polymerase clone, polypeptide SEQ ID NO: 14 (protein)
chain: MQKEIPFNYNSPKQTAKLFGIDSSSKDVLMDLALRGNEVAKKVLEARQIEKSLAFAKDLYDIAKKNGGRIHGNFFTTTAPSGRMSCSDINLQQIPRRLRQFIGFETEDKKLITADFPQIELRLAGVMWNEPEFLKAFRDGIDLHKLTASILFDKKINEVSKEERQIGKSANFGLIYGISPKGFAEYCISNGINITEEMAIEIVKKWKKFYRKIAEQHQLAYERFKYAEFVDNETWLNRPYRAYKPQDLLNYQIQGSGAELFKKAIILLKETKPDLKLVNLVHDEIVVETSTEEAEDIALLVKQKMEEAWDYCLEKAKEFGNNVADIKLEVEKPNISSVWEKE
modifications: Uncultured newly isolated virus
[3]
  Exo (exonuclease activity, either 3′-5′ or 5′-3′): No

B3: Clone 4110: thermostable viral DNA polymerase clone, polypeptide SEQ ID NO: 8 (protein)
chain: MGLDQILDMSYFVDSGATMLKLILRGSGGKNVVTVPAPFNPYFFIKKRDLDRAQSILPDYARVEDADAITAEGERVVKISVPTPPLVRVVREKLHEEGIESYEADIPYTRRVMIDLDLKVAYPETVAAFDIEVDATKGFPDINNPQSRVLSISVYDGSEEIFLCSDDEIEMFKEFNKLLRKYDVLIGWNSAAFDYPYLVERAKVLGYYVDEEMFQHVDIFGIFQTYFKREMSDFKLKTVALKVLGSKVPLGALLDFERPGDIRKLTEFFEKRRDLLKLYNMDQTKAIWMINSESGVLQTYITQARLANIIPWHRVSPRTDSSQEYISYNNDCRDLVLKKALAHKPRIVFPSKKNGENEDWDEDAKESTYTGAIVFNPIPGLWENVVLLDFASMYPRVIMTFNISYDTWTPNPGENDILAPHGGFITSREGFLPTVLRELEGYRSLAKKMVDAYEPGDPMRVIWNARQFAFKLILVSAYGVAGFRHSRLYRVEIAESITGYTRDAIMKAREVIERHGWRVLYGDTDSLFLYNPKITSVEKASEVASSELLPAINSFIRDYVVERWRVPRSRVVLEFKVDRVYSKLKLLSVKKRYYGLVAWEERMLEQPYIQIKGLEARRGDWPDLVKEIQSEVIKLYLLEGPIAVDRYLKEMKRKLLSGEIPLEKLVIKKHLNKRLDEYKHNAPHYRAARKLLEMRFPVRTGDRIEFIYLDDKVIPMVPGLKLSEVDLKKWWRKYVVPVVERLEIESRGS
modifications: Uncultured newly isolated virus
[3]
  Exo (exonuclease activity, either 3′-5′ or 5′-3′): No
